Where two headings read alike, the source gives them in different places.
How the values were obtained:
[1] = tested on: MM1.S (multiple myeloma) cells; assay: In vitro cell proliferation, MM1.S multiple myeloma cells; type: cell-based; conditions: Homo sapiens, MM1.S, 72 h, MM1.S cells, 72 hours, CELL TITER GLO; read-out: Prolif MM1S ATP (EC50);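 also: cells cultured in RPMI with 10% FBS and 2 mM L-Glutamine, seeded in 384-well plates, exposed to compound, cell viability measured by luminescence after CellTiter-Glo addition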
Experimental: (§1) BaF3 parental line was obtained from the DSMZ repository. […] Media for BaF3 parental line contained RPMI, 10% FBS, 2 mM L-Glutamine, 2 ng/mL mIL-3. Media for BaF3 PIM1 & 2 lines contained RPMI, 10% FBS, 2 mM L-Glutamine, 250 μg/mL. Media for MM1.S (multiple myeloma cells) line contained RPMI, 10% FBS, 2 mM L-Glutamine.
(§2) BaF3, a murine interleukin-3 dependent pro-B cell line, parental cells, BaF3 PIM1 cells, BaF3 PIM2 cells, and MM1.S (multiple myeloma) cells were seeded at 2 k/well, 5 k/well, 5 k/well, and 10 k/well respectively, in a 384-well plate, at 45 μL/well. Test compound was added at 5 μL/well. BaF3 cells (parental and transfected) were incubated overnight, while MM1.S cells were incubated for 72 hours at 37° C., 5% CO2. CELL TITER GLO® Reagent (Promega) was added at 50 μL/well, the plates were incubated for 30 minutes, and their luminescence read on an HT Analyst. IC50/EC50 values for the test compound were calculated.

[2] = tested on: BaF3 parental cells; assay: In vitro cell proliferation, BaF3 parental line + IL3; type: cell-based, murine; conditions: Mus musculus, BaF3, BaF3 parental, mIL-3, incubated overnight, CELL TITER GLO; read-out: Prolif BaF3 IL3 (IC50);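 also: BaF3 parental cells are murine IL-3 dependent pro-B cells grown with 2 ng/mL mIL-3, 384-well format, viability read by luminescence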
[3] = tested on: BaF3 PIM1 cells; assay: In vitro cell proliferation, BaF3 transfected with PIM1; type: cell-based, murine; conditions: Mus musculus;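 also: murine IL-3-dependent pro-B BaF3 cells transfected with PIM1, compound exposure overnight at 37 °C under 5% CO2, viability read as luminescence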
Experimental: as §1, §2

[4] = biological target: PIM1 (Homo sapiens (Human), UniProt P11309); assay: biochemical; type: biochemical
Sequence of PIM1 (P11309 whole entry): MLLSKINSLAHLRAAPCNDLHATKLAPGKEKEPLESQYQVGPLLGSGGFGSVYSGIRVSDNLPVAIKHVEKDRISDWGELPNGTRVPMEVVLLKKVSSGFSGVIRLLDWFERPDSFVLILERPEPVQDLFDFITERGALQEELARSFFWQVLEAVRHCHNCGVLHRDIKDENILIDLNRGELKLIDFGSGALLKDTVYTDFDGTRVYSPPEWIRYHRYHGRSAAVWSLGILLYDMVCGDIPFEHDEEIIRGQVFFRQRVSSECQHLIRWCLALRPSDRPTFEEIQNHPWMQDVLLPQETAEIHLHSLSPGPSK
Experimental: Reaction Buffer contained 10 mM HEPES, pH 7.2, 10 mM MgCl2, 0.01% Tween 20, 2 mM DTT. Termination Buffer contained 190 mM HEPES, pH 7.2, 0.015% Brij-35, 0.2% Coating Reagent 3 (Caliper Life Sciences, Hopkinton, Mass.), 20 mM EDTA. Separation Buffer contained 100 mM HEPES, pH 7.2, 0.015% Brij-35, 0.1% Coating Reagent 3, 1:200 Coating Reagent 8 (Caliper Life Sciences, Hopkinton, Mass.), 10 mM EDTA and 5% DMSO.
PIM reactions were carried out in a final volume of 10 μL per well in a 384-well plate. […] After 90 minutes of incubation at room temperature, the phosphorylation reaction was stopped by the addition of 10 μL Termination Buffer. The product and substrate in each independent reaction were separated on a 12-sipper microfluidic chip (Caliper Life Sciences, Hopkinton, Mass.) run on a Caliper LC3000® (Caliper Life Sciences, Hopkinton, Mass.). The separation of product and substrate was optimized by choosing voltages and pressure using Caliper's Optimizer software (Hopkinton, Mass.). The separation conditions used a downstream voltage of −500V, an upstream voltage of −2150V, and a screening pressure of −1.2 psi. […] Substrate conversion was calculated from the electropherogram using HTS Well Analyzer software (Caliper Life Sciences, Hopkinton, Mass.). Ki values for the test compound were calculated.

[5] = BaF3, read-out: Prolif BaF3 PIM1 (IC50), BaF3 PIM1 cells, incubated overnight, CELL TITER GLO
[6] = 20 pM PIM1, 1 μM FAM-peptide, 10 μM ATP, 90 minutes at room temperature, read-out: PIM1 LC3K (KI)

Row | SMILES | Ki [4, 6] [nM] | other results
1 | C[C@H]1O[C@@H](c2c(NC(=O)c3ccc(F)c(-c4c(F)cccc4F)n3)cnn2C)C[C@@H](N)[C@]1(C)O (single isomer, unassigned) [Example 343] |  | EC50 [1]: 781 nM; IC50 [2]: 12800 nM; IC50 ([3]; BaF3 PIM1 cells, incubated overnight, CELL TITER GLO, read-out: Prolif BaF3 PIM1 (IC50)): 342 nM
2 | Cn1ncc(NC(=O)c2nc(-c3c(F)cccc3F)sc2N)c1[C@]12CC[C@H](O1)[C@@H](N)CC2 [Example 115, 5-amino-N-(5-((1S,4S,5S)-4-amino-8-oxabicyclo[3.2.1]octan-1-yl)-1-methyl-1H-pyrazol-4-yl)-2-(2,6-difluorophenyl)thiazole-4-carboxamide] |  | IC50 [3, 5]: 19.2 nM
3 | Cn1ncc(NC(=O)c2nc(-c3c(F)cccc3F)sc2N)c1[C@@]12CC[C@H](N)[C@@H](CC1)O2 [Example 117, 5-amino-N-(5-((1R,4S,5R)-4-amino-8-oxabicyclo[3.2.1]octan-1-yl)-1-methyl-1H-pyrazol-4-yl)-2-(2,6-difluorophenyl)thiazole-4-carboxamide] |  | EC50 [1]: 122 nM; IC50 [3, 5]: 30.7 nM
4 | Cn1ncc(NC(=O)c2nc(-c3c(Cl)cccc3C(F)(F)F)sc2N)c1[C@@H]1CC[C@@H](N)[C@H](F)CO1 [Example 329, 5-amino-N-(5-((2S,5R,6S)-5-amino-6-fluorooxepan-2-yl)-1-methyl-1H-pyrazol-4-yl)-2-(2-chloro-6-(trifluoromethyl)phenyl)thiazole-4-carboxamide] |  | EC50 [1]: 1700 nM; IC50 [2]: 2400 nM; IC50 [3, 5]: 348 nM
5 | Cn1ncc(NC(=O)c2csc(-c3n[nH]c4c3CCCC4)n2)c1[C@@H]1CC[C@@H](N)[C@H](F)CO1 [Example 374, N-(5-((2S,5R,6S)-5-amino-6-fluorooxepan-2-yl)-1-methyl-1H-pyrazol-4-yl)-2-(4,5,6,7-tetrahydro-1H-indazol-3-yl)thiazole-4-carboxamide] | 0.023 | IC50 [2]: 13100 nM
6 | Cn1ncc(NC(=O)c2csc(-c3cnn(C)c3C(F)(F)F)n2)c1[C@@H]1CC[C@@H](N)[C@@H](F)CO1 [Example 283, N-(5-((2S,5R,6R)-5-amino-6-fluorooxepan-2-yl)-1-methyl-1H-pyrazol-4-yl)-2-(1-methyl-5-(trifluoromethyl)-1H-pyrazol-4-yl)thiazole-4-carboxamide] | 0.171 | 
7 | Cn1ncc(NC(=O)c2csc(-c3c(F)cc(O[C@@H]4CCOC4)cc3F)n2)c1[C@@H]1CC[C@@H](N)[C@H](F)CO1 [Example 217] | 0.003 | 
8 | CO[C@H]1CO[C@H](c2c(NC(=O)c3nc(-c4cc(C)ccc4F)sc3N)cnn2C)CC[C@H]1N [Example 264, 5-amino-N-(5-((2S,5R,6R)-5-amino-6-methoxyoxepan-2-yl)-1-methyl-1H-pyrazol-4-yl)-2-(2-fluoro-5-methylphenyl)thiazole-4-carboxamide] | 0.02 | 
9 | Cn1ncc(NC(=O)c2csc(-c3c(F)cc(C(C)(C)O)cc3F)n2)c1[C@@H]1CC[C@@H](N)[C@H](F)CO1 [Example 297, N-(5-((2S,5R,6S)-5-amino-6-fluorooxepan-2-yl)-1-methyl-1H-pyrazol-4-yl)-2-(2,6-difluoro-4-(2-hydroxypropan-2-yl)phenyl)thiazole-4-carboxamide] | 0.021 | 
10 | CO[C@H]1CO[C@H](c2c(NC(=O)c3csc(-c4c(F)ccc(F)c4F)n3)cnn2C)CC[C@H]1N [Example 258, N-(5-((2S,5R,6R)-5-amino-6-methoxyoxepan-2-yl)-1-methyl-1H-pyrazol-4-yl)-2-(2,3,6-trifluorophenyl)thiazole-4-carboxamide] | 0.145 | 
11 | CC(O)c1cc(F)c(-c2nc(C(=O)Nc3cnn(C)c3[C@@H]3CC[C@@H](N)[C@@H](F)CO3)ccc2F)c(F)c1 (stereo partly drawn) [Example 210, N-(5-((2S,5R,6R)-5-amino-6-fluorooxepan-2-yl)-1-methyl-1H-pyrazol-4-yl)-6-(2,6-difluoro-4-(1-hydroxyethyl)phenyl)-5-fluoropicolinamide] | 0.053 | 
12 | Cn1ncc(NC(=O)c2nc(-c3c(F)cccc3F)sc2N)c1[C@@H]1C[C@H](O)CCO1 [Example 146, 5-amino-2-(2,6-difluorophenyl)-N-(5-((2S,4R)-4-hydroxytetrahydro-2H-pyran-2-yl)-1-methyl-1H-pyrazol-4-yl)thiazole-4-carboxamide] | 0.095 | 
13 | Cn1ncc(NC(=O)c2nc(-c3c(F)cccc3F)sc2N)c1[C@H]1C[C@@H](O)CCO1 [Example 149, 5-amino-2-(2,6-difluorophenyl)-N-(5-((2R,4S)-4-hydroxytetrahydro-2H-pyran-2-yl)-1-methyl-1H-pyrazol-4-yl)thiazole-4-carboxamide] | 0.174 | 
14 | Cc1c(-c2nc(C(=O)Nc3cnn(C)c3[C@@H]3CC[C@@H](N)[C@H](F)CO3)c(N)s2)cnn1C [Example 257, 5-amino-N-(5-((2S,5R,6S)-5-amino-6-fluorooxepan-2-yl)-1-methyl-1H-pyrazol-4-yl)-2-(1,5-dimethyl-1H-pyrazol-4-yl)thiazole-4-carboxamide] | 0.025 | 
15 | Cc1noc(C)c1-c1nc(C(=O)Nc2cnn(C)c2[C@@H]2CC[C@@H](N)[C@@H](F)CO2)cs1 [Example 244, N-(5-((2S,5R,6R)-5-amino-6-fluorooxepan-2-yl)-1-methyl-1H-pyrazol-4-yl)-2-(3,5-dimethylisoxazol-4-yl)thiazole-4-carboxamide] | 5.98 | 
16 | Cn1ncc(NC(=O)c2nc(-c3c(F)cccc3F)sc2N)c1[C@@H]1C[C@H](N)CCO1 [Example 160, 5-Amino-N-[5-[(2S,4R)-4-aminotetrahydropyran-2-yl]-1-methyl-pyrazol-4-yl]-2-(2,6-difluorophenyl)thiazole-4-carboxamide] | 0.248 | 
17 | Cn1ncc(NC(=O)c2csc(-c3c(F)cncc3Cl)n2)c1[C@@H]1CC[C@@H](N)[C@H](F)CO1 [Example 349, N-(5-((2S,5R,6S)-5-amino-6-fluorooxepan-2-yl)-1-methyl-1H-pyrazol-4-yl)-2-(3-chloro-5-fluoropyridin-4-yl)thiazole-4-carboxamide] | 3.12 | 
18 | Cn1ncc(NC(=O)c2csc(-c3cc(C4CC4)ccc3F)n2)c1[C@@H]1CC[C@@H](N)[C@H](F)CO1 [Example 310, N-(5-((2S,5R,6S)-5-amino-6-fluorooxepan-2-yl)-1-methyl-1H-pyrazol-4-yl)-2-(5-cyclopropyl-2-fluorophenyl)thiazole-4-carboxamide] | 0.093 | 
19 | COc1cc(F)c(-c2nc(C(=O)Nc3cnn(C)c3[C@@H]3CC[C@@H](N)[C@@H](OC)CO3)cs2)c(F)c1 [Example 265, N-(5-((2S,5R,6R)-5-amino-6-methoxyoxepan-2-yl)-1-methyl-1H-pyrazol-4-yl)-2-(2,6-difluoro-4-methoxyphenyl)thiazole-4-carboxamide] | 0.034 | 
20 | Cn1ncc(NC(=O)c2ccc(F)c(-c3c(F)cc(C4(F)COC4)cc3F)n2)c1[C@@H]1CC[C@@H](N)[C@H](F)CO1 [Example 194, N-(5-((2S,5R,6S)-5-amino-6-fluorooxepan-2-yl)-1-methyl-1H-pyrazol-4-yl)-6-(2,6-difluoro-4-(3-fluorooxetan-3-yl)phenyl)-5-fluoropicolinamide] | 0.022 | 
21 | CO[C@H]1CO[C@H](c2c(NC(=O)c3nc(-c4c(F)cccc4Cl)sc3N)cnn2C)CC[C@H]1N [Example 280, 5-amino-N-(5-((2S,5R,6R)-5-amino-6-methoxyoxepan-2-yl)-1-methyl-1H-pyrazol-4-yl)-2-(2-chloro-6-fluorophenyl)thiazole-4-carboxamide] | 0.014 | 
22 | CC[C@]1(CO)CO[C@H](c2c(NC(=O)c3nc(-c4c(F)cccc4F)sc3N)cnn2C)OC1 [Example 162, 5-Amino-2-(2,6-difluorophenyl)-N-[5-[5-ethyl-5-(hydroxymethyl)-1,3-dioxan-2-yl]-1-methyl-pyrazol-4-yl]thiazole-4-carboxamide] | 0.025 | 
23 | Cc1ccc(F)c(-c2nc(C(=O)Nc3cnn(C)c3[C@@H]3CC[C@@H](N)[C@H](F)CO3)cs2)c1 [Example 238, N-(5-((2S,5R,6S)-5-amino-6-fluorooxepan-2-yl)-1-methyl-1H-pyrazol-4-yl)-2-(2-fluoro-5-methylphenyl)thiazole-4-carboxamide] | 0.048 | 
24 | Cn1ncc(NC(=O)c2ccc(F)c(-c3c(F)cc(C4(O)CCOCC4)cc3F)n2)c1[C@@H]1CC[C@@H](N)[C@H](F)CO1 [Example 196, N-(5-((2S,5R,6S)-5-amino-6-fluorooxepan-2-yl)-1-methyl-1H-pyrazol-4-yl)-6-(2,6-difluoro-4-(4-hydroxytetrahydro-2H-pyran-4-yl)phenyl)-5-fluoropicolinamide] | 0.006 | 
25 | Cn1ncc(NC(=O)c2csc(-c3c(F)cc(C(O)C4CC4)cc3F)n2)c1[C@@H]1CC[C@@H](N)[C@H](F)CO1 (stereo partly drawn) [Example 275, N-(5-((2S,5R,6S)-5-amino-6-fluorooxepan-2-yl)-1-methyl-1H-pyrazol-4-yl)-2-(4-(cyclopropyl(hydroxy)methyl)-2,6-difluorophenyl)thiazole-4-carboxamide] |  | Ki [4]: 0.037 nM
26 | COc1ccc(C(F)F)c(F)c1-c1nc(C(=O)Nc2cnn(C)c2[C@@H]2CC[C@@H](N)[C@H](F)CO2)cs1 [Example 378, N-[5-[(2S,5R,6S)-5-amino-6-fluoro-oxepan-2-yl]-1-methyl-pyrazol-4-yl]-2-[3-(difluoromethyl)-2-fluoro-6-methoxy-phenyl]thiazole-4-carboxamide] | 1.48 | 
27 | Cn1ncc(NC(=O)c2ccc(F)c(-c3c(F)cc(C4(O)CCC4)cc3F)n2)c1[C@@H]1CC[C@@H](N)[C@@H](F)CO1 [Example 290, N-(5-((2S,5R,6R)-5-amino-6-fluorooxepan-2-yl)-1-methyl-1H-pyrazol-4-yl)-6-(2,6-difluoro-4-(1-hydroxycyclobutyl)phenyl)-5-fluoropicolinamide] | 0.0131 | 

Reference: patent US9328106B2, “Cyclic ether pyrazol-4-yl-heterocyclyl-carboxamide compounds and methods of use” (Genentech, Inc., priority 2012, dated 2016)
